Data: patent publication US9604982B2, “P2X7 modulators” (Janssen Pharmaceutica NV, priority 2013, dated 2017)
Where two headings read alike, the source gives them in different places.

Experiments:
[1] = target: P2X7 (Homo sapiens (Human), UniProt Q99572); assay: P2X7 antagonism in human peripheral blood mononuclear cells (PBMCs), IL-1β release after LPS + Bz-ATP (ELISA); type: cell-based; conditions: 0.5 mM Bz-ATP; for remaining activity at 10 µM: read-out: PBMC 10 μM (% control); for PBMC 10 μM (% control): Table 3 (additional runs)
Sequence of P2X7 (Q99572 whole entry): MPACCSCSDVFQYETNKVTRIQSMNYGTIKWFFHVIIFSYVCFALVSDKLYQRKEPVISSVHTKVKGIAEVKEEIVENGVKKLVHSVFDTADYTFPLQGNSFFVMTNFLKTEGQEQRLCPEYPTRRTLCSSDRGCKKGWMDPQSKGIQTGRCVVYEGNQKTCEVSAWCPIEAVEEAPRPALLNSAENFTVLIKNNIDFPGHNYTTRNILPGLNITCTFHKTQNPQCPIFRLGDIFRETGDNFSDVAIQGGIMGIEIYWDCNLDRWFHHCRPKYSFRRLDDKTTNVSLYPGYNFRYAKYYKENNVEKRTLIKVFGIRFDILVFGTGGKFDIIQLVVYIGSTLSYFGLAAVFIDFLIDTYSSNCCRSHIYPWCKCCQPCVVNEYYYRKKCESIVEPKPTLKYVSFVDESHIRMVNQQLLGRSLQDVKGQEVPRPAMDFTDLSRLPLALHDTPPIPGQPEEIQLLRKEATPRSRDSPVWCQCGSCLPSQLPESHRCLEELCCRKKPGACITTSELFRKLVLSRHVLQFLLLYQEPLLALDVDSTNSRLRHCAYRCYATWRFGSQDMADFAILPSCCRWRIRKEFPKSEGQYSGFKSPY
Experimental: Human blood was collected using a blood donor program. […] Cells were incubated for an additional 1.5 hours. […] Data are analyzed and graphed on Graphpad Prism 5. […] The IC50 for each compound is then uploaded into 3DX.

[2] = target: recombinant rat P2X7 channel (Rattus norvegicus (Rat), UniProt Q64663); assay: Ca2+ flux (FLIPR) in 1321N1 cells expressing recombinant rat P2X7 channel; type: cell-based; conditions: Table 3 (additional runs); 250 μM BzATP
Sequence of recombinant rat P2X7 channel (Q64663 whole entry): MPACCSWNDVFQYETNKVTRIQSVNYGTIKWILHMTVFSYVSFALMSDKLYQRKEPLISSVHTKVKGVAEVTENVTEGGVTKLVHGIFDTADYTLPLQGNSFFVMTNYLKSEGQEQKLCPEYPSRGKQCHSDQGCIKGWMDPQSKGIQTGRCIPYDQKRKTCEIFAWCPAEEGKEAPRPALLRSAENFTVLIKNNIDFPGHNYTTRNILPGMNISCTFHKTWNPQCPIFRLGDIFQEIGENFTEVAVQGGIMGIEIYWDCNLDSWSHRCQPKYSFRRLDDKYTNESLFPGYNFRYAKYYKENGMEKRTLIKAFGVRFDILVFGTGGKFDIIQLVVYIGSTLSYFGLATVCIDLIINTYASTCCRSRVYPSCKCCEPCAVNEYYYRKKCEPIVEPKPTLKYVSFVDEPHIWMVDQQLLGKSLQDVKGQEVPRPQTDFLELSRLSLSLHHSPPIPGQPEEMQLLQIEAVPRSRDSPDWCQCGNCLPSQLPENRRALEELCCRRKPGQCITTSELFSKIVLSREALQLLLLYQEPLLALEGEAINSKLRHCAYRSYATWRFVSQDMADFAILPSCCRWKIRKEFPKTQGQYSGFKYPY
Experimental: P2X7 Antagonism in Recombinant Human P2X7 Cells or Recombinant Rat P2X7 Cells: (a) Ca^2+ Flux and (b) Radioligand Binding
(a) Ca^2+ flux: 1321N1 cells expressing the recombinant human or rat P2X7 channel was cultured in HyQ DME/(HyClone/Dulbecco's Modified Eagle Medium) high glucose supplemented with 10% Fetal Bovine Serum (FBS) and appropriate selection marker. Cells were seeded at a density of 25000 cells/well (96-well clear bottom black walled plates) in 100 μl volume/well. On the day of the experiment, cell plates were washed with assay buffer, containing (in mM): 130 NaCl, 2 KCl, 1 CaCl2, 1 MgCl2, 10 HEPES, 5 glucose; pH 7.40 and 300 mOs. After the wash, cells were loaded with the Calcium-4 dye (Molecular Device) and incubated in the dark for 60 minutes. Test compounds were prepared at 250× the test concentration in neat DMSO. Intermediate 96-well compound plates were prepared by transferring 1.2 μL of the compound into 300 μL of assay buffer. A further 3× dilution occurred when transferring 50 μL/well of the compound plate to 100 μL/well in the cell plate. Cells were incubated with test compounds and dye for 30 minutes. […] The fluorescence change was measured 180 seconds after adding the agonist.

[3] = P2X7, Table 3 (additional runs), 10 μM compound

| Structure (SMILES) | remaining activity at 10 µM ([1]; P2X7, Table 2, 10 μM compound) [%] | PBMC 10 μM (% control) ([1]; 10 μM compound) | remaining activity at 10 µM [1, 3] [%] | IC50 [2] [nM] |
| --- | --- | --- | --- | --- |
| Cc1nc2c(c(-c3ccn[nH]3)n1)C[C@H](C)N(C(=O)c1ccc(F)cc1F)C2 (single isomer, unassigned) [Example 95, (S*)-(2,4-difluorophenyl)(2,6-dimethyl-4-(1H-pyrazol-5-yl)-5,6-dihydropyrido[3,4-d]pyrimidin-7(8H)-yl)methanone] | -19.2 | – | – | – |
| CCc1nc2c(c(-c3ccn[nH]3)n1)C[C@@H](C)N(C(=O)c1cccc(C(F)(F)F)c1Cl)C2 (single isomer, unassigned) [Example 99, (R*)-(2-chloro-3-(trifluoromethyl)phenyl)(2-ethyl-6-methyl-4-(1H-pyrazol-5-yl)-5,6-dihydropyrido[3,4-d]pyrimidin-7(8H)-yl)methanone] | 16.4 | – | – | – |
| CCc1nc2c(c(-c3ccn[nH]3)n1)C[C@H](C)N(C(=O)c1cccc(C(F)(F)F)c1Cl)C2 (single isomer, unassigned) [Example 100, (S*)-(2-chloro-3-(trifluoromethyl)phenyl)(2-ethyl-6-methyl-4-(1H-pyrazol-5-yl)-5,6-dihydropyrido[3,4-d]pyrimidin-7(8H)-yl)methanone] | 4 | 4.0 | – | – |
| CC(C)c1nc2c(c(-c3ccn[nH]3)n1)C[C@@H](C)N(C(=O)c1cccc(C(F)(F)F)c1Cl)C2 (single isomer, unassigned) [Example 102, (R*)-(2-chloro-3-(trifluoromethyl)phenyl)(2-isopropyl-6-methyl-4-(1H-pyrazol-5-yl)-5,6-dihydropyrido[3,4-d]pyrimidin-7(8H)-yl)methanone] | 11.7 | – | – | – |
| CC(C)c1nc2c(c(-c3ccn[nH]3)n1)C[C@H](C)N(C(=O)c1cccc(C(F)(F)F)c1Cl)C2 (single isomer, unassigned) [Example 103, (S*)-(2-chloro-3-(trifluoromethyl)phenyl)(2-isopropyl-6-methyl-4-(1H-pyrazol-5-yl)-5,6-dihydropyrido[3,4-d]pyrimidin-7(8H)-yl)methanone] | 6.3 | 6.3 | – | – |
| C[C@@H]1c2ncnc(-c3ccn[nH]3)c2CCN1C(=O)c1cccc(C(F)(F)F)c1Cl (single isomer, unassigned) [Example 113, (R*)-(2-chloro-3-(trifluoromethyl)phenyl)(8-methyl-4-(1H-pyrazol-5-yl)-5,6-dihydropyrido[3,4-d]pyrimidin-7(8H)-yl)methanone] | -2.1 | −2.1 | – | – |
| C[C@H]1c2ncnc(-c3ccn[nH]3)c2CCN1C(=O)c1cccc(C(F)(F)F)c1Cl (single isomer, unassigned) [Example 114, (S*)-(2-chloro-3-(trifluoromethyl)phenyl)(8-methyl-4-(1H-pyrazol-5-yl)-5,6-dihydropyrido[3,4-d]pyrimidin-7(8H)-yl)methanone] | -0.5 | −0.5 | – | – |
| C[C@@H]1c2ncnc(-c3ccn[nH]3)c2CCN1C(=O)c1ccc(F)c(C(F)(F)F)c1Cl (single isomer, unassigned) [Example 116, (R*)-(2-chloro-4-fluoro-3-(trifluoromethyl)phenyl)(8-methyl-4-(1H-pyrazol-5-yl)-5,6-dihydropyrido[3,4-d]pyrimidin-7(8H)-yl)methanone] | -4.4 | −4.4 | – | – |
| C[C@H]1c2ncnc(-c3ccn[nH]3)c2CCN1C(=O)c1ccc(F)c(C(F)(F)F)c1Cl (single isomer, unassigned) [Example 117, (S*)-(2-chloro-4-fluoro-3-(trifluoromethyl)phenyl)(8-methyl-4-(1H-pyrazol-5-yl)-5,6-dihydropyrido[3,4-d]pyrimidin-7(8H)-yl)methanone] | 0.1 | 0.1 | – | – |
| C[C@@H]1c2ncnc(-c3ccn[nH]3)c2CCN1C(=O)c1ccc(F)c(Cl)c1Cl (single isomer, unassigned) [Example 119, (R*)-(2,3-dichloro-4-fluorophenyl)(8-methyl-4-(1H-pyrazol-5-yl)-5,6-dihydropyrido[3,4-d]pyrimidin-7(8H)-yl)methanone] | -1.5 | −1.5 | – | – |
| C[C@H]1c2ncnc(-c3ccn[nH]3)c2CCN1C(=O)c1ccc(F)c(Cl)c1Cl (single isomer, unassigned) [Example 120, (S*)-(2,3-dichloro-4-fluorophenyl)(8-methyl-4-(1H-pyrazol-5-yl)-5,6-dihydropyrido[3,4-d]pyrimidin-7(8H)-yl)methanone] | 2.9 | 2.9 | – | – |
| C[C@@H]1c2ncnc(-c3ccn[nH]3)c2CCN1C(=O)c1ccc(Cl)c(F)c1Cl (single isomer, unassigned) [Example 122, (R*)-(2,4-dichloro-3-fluorophenyl)(8-methyl-4-(1H-pyrazol-5-yl)-5,6-dihydropyrido[3,4-d]pyrimidin-7(8H)-yl)methanone] | 4.1 | 4.1 | – | – |
| C[C@H]1c2ncnc(-c3ccn[nH]3)c2CCN1C(=O)c1ccc(Cl)c(F)c1Cl (single isomer, unassigned) [Example 123, (S*)-(2,4-dichloro-3-fluorophenyl)(8-methyl-4-(1H-pyrazol-5-yl)-5,6-dihydropyrido[3,4-d]pyrimidin-7(8H)-yl)methanone] | 13.3 | – | – | – |
| Cc1nc2c(c(-c3ccn(CCF)n3)n1)C[C@@H](C)N(C(=O)c1cccc(C(F)(F)F)c1Cl)C2 (single isomer, unassigned) [Example 124, (R*)-(2-chloro-3-(trifluoromethyl)phenyl)(4-(1-(2-fluoroethyl)-1H-pyrazol-3-yl)-2,6-dimethyl-5,6-dihydropyrido[3,4-d]pyrimidin-7(8H)-yl)methanone] | 18.6 | – | – | – |
| COCCn1ccc(-c2nc(C)nc3c2C[C@H](C)N(C(=O)c2cccc(C(F)(F)F)c2Cl)C3)n1 (single isomer, unassigned) [Example 127, (S*)-(2-chloro-3-(trifluoromethyl)phenyl)(4-(1-(2-methoxyethyl)-1H-pyrazol-3-yl)-2,6-dimethyl-5,6-dihydropyrido[3,4-d]pyrimidin-7(8H)-yl)methanone] | 38.2 | – | – | – |
| COCCn1ccc(-c2nc(C)nc3c2C[C@@H](C)N(C(=O)c2cccc(C(F)(F)F)c2Cl)C3)n1 (single isomer, unassigned) [Example 128, (R*)-(2-chloro-3-(trifluoromethyl)phenyl)(4-(1-(2-methoxyethyl)-1H-pyrazol-3-yl)-2,6-dimethyl-5,6-dihydropyrido[3,4-d]pyrimidin-7(8H)-yl)methanone] | 7.3 | 7.3 | – | – |
| Cc1nc2c(c(-c3ccn[nH]3)n1)C[C@H](C)N(C(=O)c1cccc(OC(F)(F)F)c1)C2 (single isomer, unassigned) [Example 142, (S*)-(2,6-dimethyl-4-(1H-pyrazol-5-yl)-5,6-dihydropyrido[3,4-d]pyrimidin-7(8H)-yl)(3-(trifluoromethoxy)phenyl)methanone] | – | – | 73.9 | – |
| Cc1nc2c(c(-c3ccn[nH]3)n1)C[C@@H](C)N(C(=O)c1cccc(F)c1Cl)C2 (single isomer, unassigned) [Example 144, (R*)-(2-chloro-3-fluorophenyl)(2,6-dimethyl-4-(1H-pyrazol-5-yl)-5,6-dihydropyrido[3,4-d]pyrimidin-7(8H)-yl)methanone] | – | – | – | 200 |
| Cc1nc2c(c(-c3ccn[nH]3)n1)C[C@H](C)N(C(=O)c1cccc(F)c1Cl)C2 (single isomer, unassigned) [Example 145, (S*)-(2-chloro-3-fluorophenyl)(2,6-dimethyl-4-(1H-pyrazol-5-yl)-5,6-dihydropyrido[3,4-d]pyrimidin-7(8H)-yl)methanone] | – | – | 67.4 | – |
| Cc1nc2c(c(-c3ccn[nH]3)n1)C[C@@H](C)N(C(=O)c1ccc(Cl)c(F)c1Cl)C2 [Example 71, (R)-(2,4-dichloro-3-fluorophenyl)(2,6-dimethyl-4-(1H-pyrazol-5-yl)-5,6-dihydropyrido[3,4-d]pyrimidin-7(8H)-yl)methanone] | -4.1 | −4.1 | – | – |
| Cc1nc2c(c(-c3ccn[nH]3)n1)C[C@H](C)N(C(=O)c1ccc(Cl)c(F)c1Cl)C2 [Example 72, (S)-(2,4-dichloro-3-fluorophenyl)(2,6-dimethyl-4-(1H-pyrazol-5-yl)-5,6-dihydropyrido[3,4-d]pyrimidin-7(8H)-yl)methanone] | -2.6 | −2.6 | – | – |
| COc1cncc(C(=O)N2Cc3nc(C)nc(-c4ccn[nH]4)c3CC2C)c1 (stereo not shown) [Example 147, (2,6-dimethyl-4-(1H-pyrazol-5-yl)-5,6-dihydropyrido[3,4-d]pyrimidin-7(8H)-yl)(5-methoxypyridin-3-yl)methanone] | – | – | 110 | – |
